Test results taken from patent US20090062267A1, “L-ALANINE DERIVATIVES AS a5beta1 ANTAGONISTS” (ASTRAZENECA AB, priority 2007, published 2009).

Target: recombinant human α5β1 (Homo sapiens, UniProt P05556+P08648)
Experiment: In Vitro Binding Assay (a): inhibition of binding of α5β1 integrin to a fragment of human fibronectin (Fn9-10), Origen electrochemiluminescence
Conditions: geometric mean where tested more than once
Text: The assay determined the ability of compounds to inhibit binding of α5β1 integrin to a cognate ligand, a fragment of human fibronectin. The assay used Origen technology (IGEN International) to measure the compound activity. Briefly, α5β1 integrin was coated onto epoxy-paramagnetic beads (Dynal Biotech UK, Bromborough, Wirral, CH62 3QL, UK, Catalogue No 140.11) and biotinylated-fibronectin ligand was coupled to strepatividin labeled Tag-NHS-Ester (BioVeris Corporation, Witney, Oxfordshire, OX28 4GE, UK, Catalogue No 110034). The ruthenium-labeled tag emits an electrochemiluminescence signal upon stimulation which is detected by the Origen reader. Thus, interaction of integrin and ligand causes association of bead and tag, and the resulting electrochemiluminescence signal reflects the level of integrin interaction with fibronectin.
20 μg of recombinant human α5β1 was coated onto 4×10(7) epoxy-paramagnetic beads according to manufacturers instructions at 4° C. for 24 hours. Integrin coating and corresponding activity was subsequently measured for each batch but typically, 25 ng of coated protein was used per assay well.
A DNA fragment encoding the domains 9-10 (amino-acids 1325-1509) of human fibronectin (Swiss-Prot Accession No. P02751) was isolated from cDNA libraries using standard molecular biology and PCR cloning techniques. The cDNA fragment was sub-cloned into a pT73.3 expression vector containing a GST-epitope tag (developed at AstraZeneca; Bagnall et al., Protein Expression and Purification, 2003, 27: 1-11). Following expression in E. coli, the expressed protein, termed Fn9-10, was purified using the GST-tag using standard purification techniques. The recombinant Fn9-10 was subsequently biotinylated using a EZ-link Sulfo-NHS-LC-Biotinylation kit (Perbio Science UK Ltd., Cramlington, Northumberland, NE23 1WA, UK, Catalogue No. 21335) and made to give a final concentration of approximately 1 mg/ml. Tag-NHS-Ester was labeled with streptavidin by incubation at room temperature following manufacturers instructions and buffer-exchanged into PBS to give a concentration of 0.5 mg/ml. Immediately prior to the assay, biotinylated-Fn9-10 and Streptavidin-labeled Tag were diluted in Assay Buffer to give a final concentrations of 0.6 ug/ml and 1.5 ug/ml respectively. The Fn9-10 and Tag solutions were then mixed together in equal volumes and incubated on ice for at least 30 minutes prior to the assay.
Aliquots (20 μl) of each compound dilution were placed into each well of a 384-well round bottomed polypropylene plate (Matrix Technologies, Wilmslow, Cheshire, SK9 3LP, Catalogue No. 4340 384).
For the assay, 25 ng (20 ul) of a5b1-bead suspension and 40 μl of the Fn9-10/Tag pre-incubated solution were added to each well containing 20 μl of compound or control solution. Assay plates were then incubated at room temperature for a minimum of 6 hours before being analysed on an Origen plate reader. The minimum value was subtracted from all values, and the signal was plotted against compound concentration to generate IC50 data.
The data in the above table was generated in an assay substantially as described above in relation to Binding Assay (a). Some of the compounds shown in the table were tested more than once in the assay. For those compounds the IC50 value shown is the geometric mean of the measured IC50 values.

Chain of recombinant human α5β1 (P08648 42-1049): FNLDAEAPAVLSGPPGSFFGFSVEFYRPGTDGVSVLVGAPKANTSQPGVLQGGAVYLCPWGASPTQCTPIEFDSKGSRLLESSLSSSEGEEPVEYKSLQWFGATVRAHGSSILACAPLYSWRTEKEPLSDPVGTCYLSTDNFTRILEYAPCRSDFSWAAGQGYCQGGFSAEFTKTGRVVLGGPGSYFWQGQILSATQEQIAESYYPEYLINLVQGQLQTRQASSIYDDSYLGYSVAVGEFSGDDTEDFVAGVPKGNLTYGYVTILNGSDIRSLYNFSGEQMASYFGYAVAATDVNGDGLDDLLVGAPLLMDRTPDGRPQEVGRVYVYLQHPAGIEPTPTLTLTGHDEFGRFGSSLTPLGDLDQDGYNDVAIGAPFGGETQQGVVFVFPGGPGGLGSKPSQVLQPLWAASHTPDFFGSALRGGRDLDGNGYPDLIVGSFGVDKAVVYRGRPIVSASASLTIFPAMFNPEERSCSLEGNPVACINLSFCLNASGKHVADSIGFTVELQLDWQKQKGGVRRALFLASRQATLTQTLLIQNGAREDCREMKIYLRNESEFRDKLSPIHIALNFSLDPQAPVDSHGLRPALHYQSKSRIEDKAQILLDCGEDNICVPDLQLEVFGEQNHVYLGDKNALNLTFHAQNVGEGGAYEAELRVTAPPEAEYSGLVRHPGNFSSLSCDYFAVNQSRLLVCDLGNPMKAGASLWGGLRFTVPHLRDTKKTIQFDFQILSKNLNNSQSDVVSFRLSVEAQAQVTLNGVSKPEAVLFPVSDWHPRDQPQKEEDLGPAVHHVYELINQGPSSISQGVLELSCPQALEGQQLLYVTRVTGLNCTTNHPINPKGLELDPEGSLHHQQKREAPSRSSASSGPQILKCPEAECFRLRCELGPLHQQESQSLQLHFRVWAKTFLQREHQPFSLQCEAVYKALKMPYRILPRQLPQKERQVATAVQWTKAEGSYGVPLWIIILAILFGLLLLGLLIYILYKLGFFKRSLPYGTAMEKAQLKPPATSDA
Chain of recombinant human α5β1 (P05556 21-798): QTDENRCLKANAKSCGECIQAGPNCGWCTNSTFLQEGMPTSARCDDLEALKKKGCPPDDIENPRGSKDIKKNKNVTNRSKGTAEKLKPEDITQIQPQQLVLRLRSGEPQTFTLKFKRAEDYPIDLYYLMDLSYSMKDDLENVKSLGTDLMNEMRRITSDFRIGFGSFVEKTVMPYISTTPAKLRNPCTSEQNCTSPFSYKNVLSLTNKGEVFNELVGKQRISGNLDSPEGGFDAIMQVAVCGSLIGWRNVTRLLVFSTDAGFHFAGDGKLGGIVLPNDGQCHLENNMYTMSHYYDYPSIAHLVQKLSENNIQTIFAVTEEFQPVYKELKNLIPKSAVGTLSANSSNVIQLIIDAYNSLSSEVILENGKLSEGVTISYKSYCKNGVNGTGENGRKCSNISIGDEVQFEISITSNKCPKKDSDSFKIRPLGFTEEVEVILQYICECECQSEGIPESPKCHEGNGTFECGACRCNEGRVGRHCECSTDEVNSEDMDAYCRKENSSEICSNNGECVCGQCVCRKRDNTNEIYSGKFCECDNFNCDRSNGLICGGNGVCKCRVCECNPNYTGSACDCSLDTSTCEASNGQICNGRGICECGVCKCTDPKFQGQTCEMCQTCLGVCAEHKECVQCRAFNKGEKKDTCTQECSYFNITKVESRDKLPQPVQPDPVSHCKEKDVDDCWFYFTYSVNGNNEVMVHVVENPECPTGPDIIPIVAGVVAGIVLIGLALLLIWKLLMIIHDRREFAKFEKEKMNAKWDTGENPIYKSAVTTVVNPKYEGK

Structure (SMILES) | IC50
CNc1cccc(CCOc2ccc(C[C@H](NC(=O)c3ccncc3Cl)C(=O)O)cc2)n1 [Example 2.1, N-(3-chloroisonicotinoyl)-O-{2-[6-(methylamino)pyridin-2-yl]ethyl}-L-tyrosine] | 7 nM
CNc1cccc(CCOc2ccc(C[C@H](NC(=O)c3occc3C)C(=O)O)cc2)n1 [Example 1.6, O-{2-[6-(methylamino)pyridin-2-yl]ethyl}-N-(3-methyl-2-furoyl)-L-tyrosine] | 151 nM
CNc1cccc(CCOc2ccc(C[C@H](NC(=O)c3oc4ccccc4c3C)C(=O)O)cc2)n1 [Example 2.5, O-{2-[6-(methylamino)pyridin-2-yl]ethyl}-N-[(3-methyl-1-benzofuran-2-yl)carbonyl]-L-tyrosine] | 80 nM
CCSc1ncccc1C(=O)N[C@@H](Cc1ccc(OCCc2cccc(NC)n2)cc1)C(=O)O [Example 2.3, N-{[2-(ethylthio)pyridin-3-yl]carbonyl}-O-{2-[6-(methylamino)pyridin-2-yl]ethyl}-L-tyrosine] | 31 nM
CNc1cccc(CCOc2ccc(C[C@H](NC(=O)c3nc(C)oc3C)C(=O)O)cc2)n1 [Example 1.20, N-[(2,5-dimethyl-1,3-oxazol-4-yl)carbonyl]-O-{2-[6-(methylamino)pyridin-2-yl]ethyl}-L-tyrosine] | 349 nM
CNc1cccc(CCOc2ccc(C[C@H](NC(=O)c3sccc3C)C(=O)O)cc2)n1 [Example 1.8, O-{2-[6-(methylamino)pyridin-2-yl]ethyl}-N-[(3-methyl-2-thienyl)carbonyl]-L-tyrosine] | 19 nM
CNc1cccc(CCOc2ccc(C[C@H](NC(=O)c3ccc(C)s3)C(=O)O)cc2)n1 [Example 1.3, O-{2-[6-(methylamino)pyridin-2-yl]ethyl}-N-[(5-methyl-2-thienyl)carbonyl]-L-tyrosine] | 229 nM
CNc1cccc(CCOc2ccc(C[C@H](NC(=O)c3csc(C(C)C)c3)C(=O)O)cc2)n1 [Example 1.30, N-[(5-isopropyl-3-thienyl)carbonyl]-O-{2-[6-(methylamino)pyridin-2-yl]ethyl}-L-tyrosine] | 132 nM
CNc1cccc(CCOc2ccc(C[C@H](NC(=O)c3cccn3C)C(=O)O)cc2)n1 [Example 1.4, O-{2-[6-(methylamino)pyridin-2-yl]ethyl}-N-[(1-methyl-1H-pyrrol-2-yl)carbonyl]-L-tyrosine] | 55 nM
O=C(N[C@@H](Cc1ccc(OCCc2ccc3c(n2)NCCO3)cc1)C(=O)O)c1ccncc1Cl [Example 4.4, N-[(3-chloropyridin-4-yl)carbonyl]-O-[2-(3,4-dihydro-2H-pyrido[3,2-b][1,4]oxazin-6-yl)ethyl]-L-tyrosine] | 5 nM
CNc1cccc(CCOc2ccc(C[C@H](NC(=O)c3c(Cl)c4ccccc4n3C)C(=O)O)cc2)n1 [Example 1.26, N-[(3-chloro-1-methyl-1H-indol-2-yl)carbonyl]-O-{2-[6-(methylamino)pyridin-2-yl]ethyl}-L-tyrosine] | 111 nM
O=C(N[C@@H](Cc1ccc(OCCc2ccc3c(n2)NCCO3)cc1)C(=O)O)c1sccc1Cl [Example 4.2, N-[(3-chlorothiophen-2-yl)carbonyl]-O-[2-(3,4-dihydro-2H-pyrido[3,2-b][1,4]oxazin-6-yl)ethyl]-L-tyrosine] | 51 nM
CNc1cccc(CCOc2ccc(C[C@H](NC(=O)c3ocnc3C)C(=O)O)cc2)n1 [Example 1.18, O-{2-[6-(methylamino)pyridin-2-yl]ethyl}-N-[(4-methyl-1,3-oxazol-5-yl)carbonyl]-L-tyrosine] | 250 nM
CNc1cccc(CCOc2ccc(C[C@H](NC(=O)c3scc(C)c3Cl)C(=O)O)cc2)n1 [Example 1.17, N-[(3-chloro-4-methyl-2-thienyl)carbonyl]-O-{2-[6-(methylamino)pyridin-2-yl]ethyl}-L-tyrosine] | 89 nM
Cc1cnccc1C(=O)N[C@@H](Cc1ccc(OCCc2ccc3c(n2)NCCO3)cc1)C(=O)O [Example 4.5, O-[2-(3,4-dihydro-2H-pyrido[3,2-b][1,4]oxazin-6-yl)ethyl]-N-[(3-methylpyridin-4-yl)carbonyl]-L-tyrosine] | 4 nM
CNc1cccc(CCOc2ccc(C[C@H](NC(=O)c3nc(Cl)ccc3Cl)C(=O)O)cc2)n1 [Example 1.22, N-[(3,6-dichloropyridin-2-yl)carbonyl]-O-{2-[6-(methylamino)pyridin-2-yl]ethyl}-L-tyrosine] | 34 nM
O=C(N[C@@H](Cc1ccc(OCCc2ccc3c(n2)NCCC3)cn1)C(=O)O)c1sccc1Cl [Example 6, N-[(3-chlorothiophen-2-yl)carbonyl]-3-{5-[2-(5,6,7,8-tetrahydro-1,8-naphthyridin-2-yl)ethoxy]pyridin-2-yl}-L-alanine] | < 1 nM
O=C(N[C@@H](Cc1ccc(CCCc2ccc3c(n2)NCCC3)nc1)C(=O)O)c1sccc1Cl [Example 10, N-[(3-chloro-2-thienyl)carbonyl]-3-{6-[3-(5,6,7,8-tetrahydro-1,8-naphthyridin-2-yl)propyl]pyridin-3-yl}-L-alanine] | 2.5 nM
CNc1cccc(CCOc2ccc(C[C@H](NC(=O)c3scnc3C)C(=O)O)cc2)n1 [Example 1.16, O-{2-[6-(methylamino)pyridin-2-yl]ethyl}-N-[(4-methyl-1,3-thiazol-5-yl)carbonyl]-L-tyrosine] | 24 nM
CNc1cccc(CCOc2ccc(C[C@H](NC(=O)c3ncccc3Cl)C(=O)O)cc2)n1 [Example 1.23, N-[(3-chloropyridin-2-yl)carbonyl]-O-{2-[6-(methylamino)pyridin-2-yl]ethyl}-L-tyrosine] | 24 nM
CNc1cccc(CCOc2ccc(C[C@H](NC(=O)c3ccc(OC)nc3OC)C(=O)O)cc2)n1 [Example 3.2, N-[(2,6-dimethoxypyridin-3-yl)carbonyl]-O-{2-[6-(methylamino)pyridin-2-yl]ethyl}-L-tyrosine] | 352 nM
CNc1cccc(CCOc2ccc(C[C@H](NC(=O)c3cnccc3C)C(=O)O)cc2)n1 [Example 1.10, O-{2-[6-(methylamino)pyridin-2-yl]ethyl}-N-[(4-methylpyridin-3-yl)carbonyl]-L-tyrosine] | 23 nM
O=C(N[C@@H](Cc1ccc(CCCc2ccc3c(n2)NCCC3)cn1)C(=O)O)c1sccc1Cl [Example 8, N-[(3-chlorothiophen-2-yl)carbonyl]-3-{5-[3-(5,6,7,8-tetrahydro-1,8-naphthyridin-2-yl)propyl]pyridin-2-yl}-L-alanine] | 4 nM
CNc1cccc(CCOc2ccc(C[C@H](NC(=O)c3sccc3Cl)C(=O)O)cc2)n1 [Example 1.1, N-[(3-chloro-2-thienyl)carbonyl]-O-{2-[6-(methylamino)pyridin-2-yl]ethyl}-L-tyrosine] | 12 nM
CNc1cccc(CCOc2ccc(C[C@H](NC(=O)c3c(Cl)cncc3Cl)C(=O)O)cc2)n1 [Example 1.19, N-(3,5-dichloroisonicotinoyl)-O-{2-[6-(methylamino)pyridin-2-yl]ethyl}-L-tyrosine] | 1 nM
CNc1cccc(CCOc2ccc(C[C@H](NC(=O)c3ncc(Cl)cc3Cl)C(=O)O)cc2)n1 [Example 1.24, N-[(3,5-dichloropyridin-2-yl)carbonyl]-O-{2-[6-(methylamino)pyridin-2-yl]ethyl}-L-tyrosine] | 35 nM
CCCc1cc(C(=O)N[C@@H](Cc2ccc(OCCc3cccc(NC)n3)cc2)C(=O)O)cs1 [Example 1.29, O-{2-[6-(methylamino)pyridin-2-yl]ethyl}-N-[(5-propyl-3-thienyl)carbonyl]-L-tyrosine] | 71 nM
CCc1sccc1C(=O)N[C@@H](Cc1ccc(OCCc2ccc3c(n2)NCCC3)cc1)C(=O)O [Example 5.6, N-[(2-ethylthiophen-3-yl)carbonyl]-O-[2-(5,6,7,8-tetrahydro-1,8-naphthyridin-2-yl)ethyl]-L-tyrosine] | 1 nM
O=C(N[C@@H](Cc1ccc(OCCc2ccc3c(n2)NCCC3)cc1)C(=O)O)c1c(Cl)cncc1Cl [Example 5.5, N-[(3,5-dichloropyridin-4-yl)carbonyl]-O-[2-(5,6,7,8-tetrahydro-1,8-naphthyridin-2-yl)ethyl]-L-tyrosine] | < 1 nM
